Source: the supplement of paper PMC10307832

Key:
Assay in all cases: relative viability (nuclei count vs DMSO), 5 days (fraction); higher = more cells survive
Bexarotene + Vorinostat = compound: C=C(c1ccc(C(=O)O)cc1)c1cc2c(cc1C)C(C)(C)CCC2(C)C [Bexarotene] + O=C(CCCCCCC(=O)Nc1ccccc1)NO [Vorinostat] (partner 1 µM)
Outline: (§1)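 Each reported value is a median over duplicate plates. It expresses relative viability: treated-well nuclei count divided by vehicle-well nuclei count. Lung cancer cell lines in 1536-well plates were dosed by pin tool a day after seeding, alone with one drug or with a fixed anchor-drug dose plus five library-drug doses (not always all listed) in √10 steps, and nuclei were counted after 5 days.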

Bexarotene + Foretinib = compound: C=C(c1ccc(C(=O)O)cc1)c1cc2c(cc1C)C(C)(C)CCC2(C)C [Bexarotene] + COc1cc2c(Oc3ccc(NC(=O)C4(C(=O)Nc5ccc(F)cc5)CC4)cc3F)ccnc2cc1OCCCN1CCOCC1 [Foretinib] (partner 0.25 µM)
Outline: as §1

Bexarotene + Pictilisib = compound: C=C(c1ccc(C(=O)O)cc1)c1cc2c(cc1C)C(C)(C)CCC2(C)C [Bexarotene] + CS(=O)(=O)N1CCN(Cc2cc3nc(-c4cccc5[nH]ncc45)nc(N4CCOCC4)c3s2)CC1 [Pictilisib] (partner 1 µM)
Outline: as §1

Bexarotene + AZD7762 = compound: C=C(c1ccc(C(=O)O)cc1)c1cc2c(cc1C)C(C)(C)CCC2(C)C [Bexarotene] + NC(=O)Nc1cc(-c2cccc(F)c2)sc1C(=O)N[C@H]1CCCNC1 [AZD7762] (partner 0.2 µM)
Outline: as §1

Cell Line	relative viability (Bexarotene + Vorinostat; first compound 0.08 µM)	relative viability (Bexarotene + Vorinostat; first compound 0.253 µM)	relative viability (Bexarotene + Vorinostat; first compound 0.8 µM)	relative viability (Bexarotene + Vorinostat; first compound 2.53 µM)	relative viability (Bexarotene + Vorinostat; first compound 8 µM)	relative viability (Bexarotene + Foretinib; first compound 0.08 µM)	relative viability (Bexarotene + Foretinib; first compound 0.253 µM)	relative viability (Bexarotene + Foretinib; first compound 0.8 µM)	relative viability (Bexarotene + Foretinib; first compound 2.53 µM)	relative viability (Bexarotene + Foretinib; first compound 8 µM)	relative viability (Bexarotene + Pictilisib; first compound 0.08 µM)	relative viability (Bexarotene + Pictilisib; first compound 0.253 µM)	relative viability (Bexarotene + Pictilisib; first compound 0.8 µM)	relative viability (Bexarotene + Pictilisib; first compound 2.53 µM)	relative viability (Bexarotene + Pictilisib; first compound 8 µM)	relative viability (Bexarotene + AZD7762; first compound 0.08 µM)	relative viability (Bexarotene + AZD7762; first compound 0.253 µM)	relative viability (Bexarotene + AZD7762; first compound 0.8 µM)	relative viability (Bexarotene + AZD7762; first compound 2.53 µM)	relative viability (Bexarotene + AZD7762; first compound 8 µM)
NCI-H2228	0.784	0.691	0.787	0.665	0.887	0.971	1.08	0.698	0.897	0.837	0.476	0.572	0.358	0.454	0.336	–	–	–	–	–
NCI-H2087	1.07	0.765	0.642	1.09	0.841	1.3	1.1	1.12	0.982	1.03	1.03	0.941	0.91	0.786	0.818	1.33	1.3	1.2	1.35	1.16
LU99A	0.597	0.539	0.551	0.527	0.612	0.908	0.865	0.898	0.931	0.809	0.377	0.407	0.379	0.297	0.323	0.356	0.444	0.391	0.404	0.36
NCI-H1355	0.672	0.724	0.584	0.604	0.619	1	1.09	0.91	1.05	0.947	0.604	0.622	0.358	0.561	0.486	0.868	0.841	0.671	0.9	0.682
NCI-H520	0.781	0.695	0.778	0.775	0.716	0.854	0.678	0.652	0.812	0.727	0.324	0.244	0.293	0.286	0.235	–	–	–	–	–
NCI-H661	0.876	0.814	0.878	0.861	0.808	1.02	1.04	0.916	0.967	0.933	0.438	0.362	0.397	0.362	0.35	–	–	–	–	–
NCI-H650	0.542	0.497	0.429	0.457	0.467	0.974	0.995	0.958	0.991	0.996	0.946	0.939	0.851	0.753	0.858	1.13	0.986	1.17	0.709	1.05
NCI-H647	0.544	0.917	0.826	0.978	0.538	1.32	1.42	1.4	1.32	1.04	0.378	0.356	0.429	–	0.358	0.429	0.463	0.459	0.272	0.33
SW 1573	0.918	0.645	1.11	0.635	0.746	1.02	0.831	0.661	0.669	0.666	0.554	0.459	0.447	0.42	0.436	–	–	–	–	–
COR-L23	0.54	0.539	0.411	0.426	0.337	0.999	1.06	0.908	0.952	1.05	0.735	0.759	0.5	0.67	0.52	–	–	–	–	–
SK-LU-1	0.924	0.866	–	0.734	0.672	0.785	0.898	–	0.791	0.762	0.717	0.663	–	0.567	0.63	–	–	–	–	–
NCI-H1650	0.524	0.548	0.579	0.676	0.736	1.13	0.988	1.09	1.18	1.11	0.669	0.544	0.527	0.537	0.527	–	–	–	–	–
UMC-11	0.357	0.379	0.408	0.377	0.346	1.1	1.01	0.946	1.07	0.956	0.973	0.814	0.756	0.805	0.802	–	–	–	–	–
SK-MES-1	1.2	1.28	1.11	1.06	0.936	1.1	0.959	1.02	1.03	0.866	0.397	0.408	0.466	0.329	0.399	–	–	–	–	–
NCI-H2009	0.692	0.86	0.845	0.76	0.834	1.33	1.34	1.24	1.29	1.19	0.96	0.959	0.723	0.818	0.8	–	–	–	–	–
NCI-H2023	0.644	0.941	0.619	0.57	0.528	0.841	0.799	0.899	0.775	0.68	0.326	0.245	0.241	0.252	0.222	–	–	–	–	–
COR-L 105	0.844	0.896	0.855	0.874	0.927	1.07	1.05	1.07	1.12	0.833	0.473	0.397	0.331	0.385	0.39	–	–	–	–	–
NCI-H1563	–	–	–	–	–	1.04	0.868	0.824	0.989	0.85	0.736	0.647	0.685	0.696	0.661	–	–	–	–	–
EBC-1	–	–	–	–	–	0.111	0.124	0.101	0.129	0.112	0.395	0.481	0.476	0.474	0.475	–	–	–	–	–
Calu-6	–	–	–	–	–	0.973	0.901	0.752	0.886	1.02	0.944	0.926	0.911	1.11	0.884	–	–	–	–	–
HCC-44	1.09	1.05	0.971	1.04	1.16	–	–	–	–	–	0.661	0.663	0.479	0.579	0.459	0.978	1.12	0.927	0.967	0.964
